Test results taken from patent US20060177374A1, “Treatment of cancer with active vitamin D compounds in combination with radiotherapeutic agents and treatments” (Novacea, Inc., priority 2003, published 2006).

Columns and labels:
[1] = in vivo; cited from earlier work
[2] = Solubility study of calcitriol in each formulation (light microscope); format: physicochemical; details: heated to 50° C., cooled to room temperature, highest concentration tested
Procedure: To further assess the formulations of calcitriol, a solubility study was conducted to evaluate the amount of calcitriol soluble in each formulation. Calcitriol concentrations from 0.1 to 0.6 μg calcitriol/mg formulation were prepared by heating the formulations to 50° C. followed by addition of the appropriate mass of calcitriol. The formulations were then allowed to cool to room temperature and the presence of undissolved calcitriol was determined by a light microscope with and without polarizing light. For each formulation, calcitriol was soluble at the highest concentration tested, 0.6 μg calcitriol/mg formulation.

SMILES | Hypercalcemic effect compared to calcitriol [1] | Calcitriol soluble in formulation [2]
C=C1/C(=C\C=C2/CCC[C@]3(C)C([C@H](C)CC#CC(C)(C)O)=CC[C@@H]23)C[C@@H](O)C[C@@H]1O [Ro23-7553] | reduced hypercalcemic effect | 
C=C1/C(=C\C=C2/CCC[C@]3(C)[C@@H]([C@H](C)CCCC(C)(C)O)CC[C@@H]23)C[C@@H](O)C[C@@H]1O [calcitriol, 1α,25-dihydroxyvitamin D3] |  | ≥ 0.6 μg calcitriol/mg formulation
